We go through 15 compounds from US9546139B2, “Pyridine carboxylic acid based compound used as a P2X1 and P2X3 receptor antagonist, a production method for the same and a composition comprising the same” (GWANGJU INSTITUTE OF SCIENCE AND TECHNOLOGY, priority 2010, dated 2017).

In one experiment the target is T1, human P2X3 receptor (Homo sapiens, UniProt P56373).
T1 construct: expressed in transfected cells; host or cells: Xenopus oocytes (cRNA injected); cDNA from the Max-Planck Institute laboratory (Dr. W. Stuhmer and Dr. F. Soto)
T1 sequence (P56373 1-397): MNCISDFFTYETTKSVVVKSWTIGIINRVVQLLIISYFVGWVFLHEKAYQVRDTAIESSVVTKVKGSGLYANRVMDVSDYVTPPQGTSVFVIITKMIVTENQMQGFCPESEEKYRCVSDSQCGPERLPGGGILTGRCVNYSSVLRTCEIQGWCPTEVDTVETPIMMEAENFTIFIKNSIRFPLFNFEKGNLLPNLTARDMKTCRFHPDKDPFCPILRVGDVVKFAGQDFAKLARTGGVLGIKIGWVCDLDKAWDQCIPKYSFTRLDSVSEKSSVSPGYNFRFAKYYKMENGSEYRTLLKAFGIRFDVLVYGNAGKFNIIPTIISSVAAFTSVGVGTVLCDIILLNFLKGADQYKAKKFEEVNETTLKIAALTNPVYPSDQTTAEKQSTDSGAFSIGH
In words: Two-electrode voltage clamp, ATP-induced ion current in Xenopus oocytes expressing human P2X3. To be noted: for inhibition at 10 µM / inhibition at 0.1 µM: read-out: % inhibition hP2X3; for inhibition at 0.1 µM: 100 nM compound. It counts as cell-based. As to the method: Antagonistic Activity at Recombinant Mouse P2X1 and Human P2X3 Receptors
(§1) Xenopus oocytes were harvested and prepared with method as previously described in publications. Defolliculated oocytes were injected cytosolically with mouse P2X1 and human P2X3 receptor cRNA ([…], 1 μg/mL), respectively, incubated for 24 hrs at 18° C. in Barth's solution and kept for up to 12 days at 4° C. until used in electrophysiological experiments. ATP-activated membrane currents (Vh=−70 mV) were recorded from cRNA-injected oocytes using the twin-electrode voltage-clamp technique (Axoclamp 2B amplifier). Voltage recording (1-2 MΩ tip resistance) and current-recording microelectrodes (5 MΩ tip resistance) were filled with 3.0 M KCl. Oocytes were held in an electrophysiological chamber and superfused with Ringer's solution (5 mL/min, at 18° C.) containing (mM) NaCl, 110; KCl, 2.5; HEPES, 5; BaCl2, 1.8, adjusted to pH 7.5. ATP was superfused over the oocytes for 60-120s then washed out for a period of 20 min. For inhibition curves, data were normalized to the current evoked by ATP, at pH 7.5. Test substances were added for 20 min prior to ATP exposure; all peptides were tested for reversibility of their effects. The concentration required to inhibit the ATP response by 50% (IC50) was taken from Hill plots constructed using the formula: log(I/Imax−1), where I is the current evoked by ATP in the presence of an antagonist. Data are presented as mean±SEM (n=4) for the data from different batches of oocytes.
In general terms: In two-electrode clamp one electrode senses voltage and the other passes current.

The target of the next experiment is T2, mouse P2X1 receptor (Mus musculus, UniProt P51576).
T2 construct: EST clones containing full-length cDNAs of mouse P2X1 (clone ID: 4189541) and human P2X7 receptor (clone ID: 5286944); host or cells: Xenopus oocytes (cRNA injected)
T2 sequence (P51576 1-399): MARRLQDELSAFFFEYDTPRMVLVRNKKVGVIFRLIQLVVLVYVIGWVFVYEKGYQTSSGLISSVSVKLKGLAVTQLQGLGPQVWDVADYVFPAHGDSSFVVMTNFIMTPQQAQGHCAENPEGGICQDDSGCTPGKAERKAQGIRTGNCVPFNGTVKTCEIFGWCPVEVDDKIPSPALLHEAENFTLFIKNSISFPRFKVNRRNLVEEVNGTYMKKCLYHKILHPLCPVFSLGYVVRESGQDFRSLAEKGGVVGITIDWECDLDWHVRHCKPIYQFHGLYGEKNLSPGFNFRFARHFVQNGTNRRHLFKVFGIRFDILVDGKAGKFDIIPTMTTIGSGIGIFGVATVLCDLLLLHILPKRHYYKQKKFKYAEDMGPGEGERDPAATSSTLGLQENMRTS
Put plainly: Two-electrode voltage clamp, ATP-induced ion current in Xenopus oocytes expressing mouse P2X1. It counts as cell-based. To be noted: for inhibition at 10 µM / inhibition at 0.1 µM: read-out: % inhibition mP2X1; for antagonistic activity, mouse P2X1 versus human P2X3: comparison of the two receptors. How it is done: 1-1. Antagonistic Activity at Recombinant Mouse P2X1 and Human P2X3 Receptors
as §1

The mark [1] stands for this setting: concentration-inhibitory curve, 2 μM ATP (FIG. 1C, FIG. 2B).
Where [2] appears, read: Table 1, 10 μM compound, ion current induced by 2 μM ATP, mean ± SEM, n = 4.
The mark [3] stands for this setting: Table 1, 100 nM compound, ion current induced by 2 μM ATP, mean ± SEM, n = 4.
Setting [4] is: concentration-inhibitory curve, 2 μM ATP (FIG. 1B, FIG. 2A).
Setting [5] is: concentration-inhibitory curve, 2 μM ATP, read-out: IC50 value (FIG. 1B).
[6] abbreviates: concentration-response curve, 2 μM ATP, mean of four observations, read-out: IC50 value.
Where [7] appears, read: Table 1, ion current induced by 2 μM ATP, mean ± SEM, n = 4.
Setting [8] is: concentration-inhibitory curve, 2 μM ATP, read-out: IC50 value (FIG. 1C).

Like-named read-outs stand apart in the source and are kept apart here.

For orientation: Hill coefficient means a measure of the steepness of the concentration-response curve. The term IC50 denotes the point on the concentration scale where inhibition reaches its midpoint. A word on the inhibition: it is the share of the control response that was lost under treatment.

Consider `O=C(O)c1cc(C(=O)O)c(C(=O)N(Cc2cccc(Oc3ccccc3)c2)[C@H]2CCCc3ccccc32)cc1C(=O)O` [A-317491, reference compound], for which the Hill coefficient on human P2X3 receptor (setting [1]) is listed as −0.68±0.18.
For `Cc1nc(N=Nc2cc(S(=O)(=O)O)ccc2S(=O)(=O)O)c(COP(=O)(O)O)c(C=O)c1O` [Compound 3, pyridoxal-phosphate-6-azophenyl-2′,5′-disulfonic acid, reference compound], at mouse P2X1 receptor, the “% inhibition mP2X1” value was found to be 62.4 ± 3.1% and the Hill coefficient was −1.09±0.13. Also, the IC50 at mouse P2X1 receptor (read-out: IC50 value (FIG. 1B)) amounted to 30.7 ± 5.12 nM. Also, at human P2X3 receptor, the “% inhibition hP2X3” value is reported as 48.3 ± 5.6% and the Hill coefficient is recorded as −1.11±0.27. Besides, the IC50 at human P2X3 receptor (read-out: IC50 value (FIG. 1C)) was determined as 96.2 ± 21 nM.
For the compound `Cc1ncc(CCC(=O)O)c(C=O)c1O` [Compound 13, 3-(4-formyl-5-hydroxy-6-methylpyridin-3-yl) propanoic acid], the inhibition at 10 µM on mouse P2X1 receptor (setting [2]) was found to be 19.5 ± 5.1%; at human P2X3 receptor (setting [2]) it was 22.3 ± 8.1%.
For the compound `Cc1ncc(CCC(=O)O)c(C(=O)O)c1O` [Compound 14, 5-(2-Carboxyethyl)-3-hydroxy-2-methyl isonicotinic acid], the inhibition at 10 µM on mouse P2X1 receptor (setting [2]) turned out to be 14.8 ± 1.7%; on human P2X3 receptor (setting [2]), 15.2 ± 7.7%.
Consider `Cc1ncc(C=CC(=O)O)c(C=O)c1O` [Compound 17, 3-(4-Formyl-5-hydroxy-6-methylpyridin-3-yl)acrylic acid], for which the figures for the inhibition at 10 µM at mouse P2X1 receptor (setting [2]) and on human P2X3 receptor (setting [2]) were 7.4 ± 1.9% and 9.3 ± 2.3%, respectively.
For `Cc1ncc(C=CC(=O)O)c(C(=O)O)c1O` [Compound 18, 5-(2-Carboxyvinyl)-3-hydroxy-2-methylisonicotinic acid], at mouse P2X1 receptor (setting [2]), the “% inhibition mP2X1” value was “inactive”. At human P2X3 receptor (setting [2]), the “% inhibition hP2X3” value is “inactive”.
Regarding `Cc1ncc(CN(CCC(=O)O)Cc2ccccc2)c(C=O)c1O` [Compound 22, 3-(Benzyl((4-formyl-5-hydroxy-6-methylpyridin-3-yl)methyl)amino)propanoic acid], at mouse P2X1 receptor (setting [2]), the “% inhibition mP2X1” value was “inactive”. The “% inhibition hP2X3” value at human P2X3 receptor (setting [2]) is “inactive”.
For the compound `Cc1ncc(CN(CCC(=O)O)Cc2ccccc2)c(C(=O)O)c1O` [Compound 23, 5-((Benzyl(2-carboxyethyl)amino)methyl)-3-hydroxy-2-methylisonicotinic acid], at mouse P2X1 receptor (setting [2]), the “% inhibition mP2X1” value is “inactive”. In addition, the “% inhibition hP2X3” value on human P2X3 receptor (setting [2]) was “inactive”.
As for `Cc1nc(N=Nc2cc(S(=O)(=O)O)ccc2S(=O)(=O)O)c(CCC(=O)O)c(C=O)c1O` [Compound 24, 3-(2-((2,5-Disulfophenyl)diazenyl)-4-formyl-5-hydroxy-6-methylpyridin-3-yl)propanoic acid], the “inhibitory activity to the ATP-induced ion current” value against mouse P2X1 receptor (FIG. 1A, 2 μM ATP, two concentrations) is given as “concentration-dependent inhibitory activity”. For the same compound, the inhibition at 0.1 µM at mouse P2X1 receptor (setting [3]) came to 58.6 ± 4.5%; on human P2X3 receptor (setting [7]), 40.1 ± 8.4%. The Hill coefficient on mouse P2X1 receptor (setting [4]) was −1.13±0.40; on human P2X3 receptor (setting [1]), −1.18±0.25. Also, the IC50 came to 70.5 ± 2.72 nM on mouse P2X1 receptor (setting [5]), 70 nM at mouse P2X1 receptor (setting [6]), 105 ± 17.5 nM on human P2X3 receptor (setting [8]) and 105 nM on human P2X3 receptor (setting [6]).
Take `Cc1nc(N=Nc2cc(S(=O)(=O)O)ccc2S(=O)(=O)O)c(CCC(=O)O)c(C(=O)O)c1O` [Compound 25, 3-(2-Carboxyethyl)-2-((2,5-disulfophenyl)diazenyl)-5-hydroxy-6-methylisonicotinic acid]: at mouse P2X1 receptor (setting [3]), the “% inhibition mP2X1” value worked out at 60.2 ± 4.9% and the inhibition at 0.1 µM was 60%. In addition, the “antagonistic activity, mouse P2X1 versus human P2X3” value at mouse P2X1 receptor is listed as “more powerful antagonistic activity to mouse P2X1 than human P2X3 receptor”. Moreover, the inhibition at 0.1 µM at human P2X3 receptor (setting [7]) was 45.7 ± 10.8%.
Take `Cc1nc(N=Nc2ccc(S(=O)(=O)O)cc2)c(CCC(=O)O)c(C=O)c1O` [Compound 26, 3-(4-Formyl-5-hydroxy-6-methyl-2-((4-sulfophenyl)diazenyl)pyridin-3-yl)propanoic acid]: the inhibition at 0.1 µM on mouse P2X1 receptor (setting [3]) is 41.8 ± 9.8%; on human P2X3 receptor (setting [7]), 46.5 ± 11.2%.
For the compound `Cc1nc(N=Nc2ccc(S(=O)(=O)O)cc2)c(CCC(=O)O)c(C(=O)O)c1O` [Compound 27, 3-(2-carboxyethyl)-5-hydroxy-6-methyl-2-((4-sulfophenyl)diazenyl)isonicotinic acid], the inhibition at 0.1 µM at mouse P2X1 receptor (setting [3]) amounted to 57.6 ± 8.8%; at human P2X3 receptor (setting [7]), 37.6 ± 6.9%. Besides, the “antagonistic activity, mouse P2X1 versus human P2X3” value at mouse P2X1 receptor was “more powerful antagonistic activity to mouse P2X1 than human P2X3 receptor”.
On to `Cc1nc(N=Nc2ccc(C(=O)O)cc2)c(CCC(=O)O)c(C=O)c1O` [Compound 28, 4-((3-(2-carboxyethyl)-4-formyl-5-hydroxy-6-methylpyridin-2-yl)diazenyl)benzoic acid], for which the values for the inhibition at 0.1 µM at mouse P2X1 receptor (setting [3]) and on human P2X3 receptor (setting [7]) were 48.5 ± 9.5% and 56.3 ± 8.8%, respectively. For the same compound, the Hill coefficient is recorded as −1.20±0.45 at mouse P2X1 receptor (setting [4]) and −1.08±0.02 at human P2X3 receptor (setting [1]). Moreover, the IC50 is 130 ± 13.6 nM at mouse P2X1 receptor (setting [5]), 130 nM at mouse P2X1 receptor (setting [6]), 79.8 ± 1.21 nM at human P2X3 receptor (setting [8]) and 80 nM on human P2X3 receptor (setting [6]).
In the case of `Cc1nc(N=Nc2ccc(C(=O)O)cc2)c(CCC(=O)O)c(C(=O)O)c1O` [Compound 29, 3-(2-carboxyethyl)-2-((4-carboxyphenyl)diazenyl)-5-hydroxy-6-methy lisonicotinic acid], the inhibition at 0.1 µM was 51.7 ± 7.4% on mouse P2X1 receptor (setting [3]) and 25.7 ± 6.9% at human P2X3 receptor (setting [7]). At mouse P2X1 receptor, the “antagonistic activity, mouse P2X1 versus human P2X3” value is on record as “more powerful antagonistic activity to mouse P2X1 than human P2X3 receptor”.
At mouse P2X1 receptor (setting [4]), `Cc1nc(/N=N/c2ccc(C(=O)O)cc2)c(COP(=O)(O)O)c(C=O)c1O` [MRS2159, reference compound] gave a Hill coefficient of −1.13±0.20.
